Laboratory results: PMC10939713 (Pharmaceutical research, 2024)
“Also recorded” adds a separate entry of the source. Counter-ions that a name gives are not always drawn. One block for each compound: values may come before it.

Key:
[1] = cited from earlier work
[2] = Drug solubility in simulated intestinal fluids; assay type: physicochemical
[3] = FeSSIF pH 5.0
[4] = rats; EGCG group (control group 79%); cited from earlier work
[5] = Mouse pharmacokinetic natural product-drug interaction study; assay type: in vivo, C57BL/6 mice; details: for Cmax / AUC0-4h / AUC0-24h / Metabolite-to-parent AUC0-4h ratio / Metabolite-to-parent AUC0-24h ratio / AUC(0-t): geometric mean (CV%); for tmax: median (range)
[6] = FaSSIF pH 6.5
[7] = rats; oral administration of EGCG and sunitinib; cited from earlier work
[8] = cited from earlier work; remark: listed apart in the source
[9] = mice, plasma, raloxifene 20 mg/kg oral with EGCG 12.96 mg/kg
[10] = mice, plasma, raloxifene 20 mg/kg oral with green tea extract 200 mg/kg
[11] = mice, raloxifene 20 mg/kg oral alone in vehicle
[12] = mice, raloxifene 20 mg/kg oral with EGCG 12.96 mg/kg
[13] = mice, raloxifene 20 mg/kg oral with green tea extract 200 mg/kg

solubility in simulated intestinal fluids (in words) ([2]; at 0.16 mg/mL): completely soluble
Structure (SMILES): CC(C)(C)NCC(O)COc1cccc2c1CC(O)C(O)C2 (centres unmarked) [Nadolol]
logP [1]: 0.85

effect on Cmax of raloxifene and raloxifene-6-glucuronide (in words) ([5]; mice, compared to vehicle group, EGCG 12.96 mg/kg): no effect
effect on raloxifene solubility in FaSSIF (in words) [6]: decreased the solubility
Structure (SMILES): O=C(O[C@@H]1Cc2c(O)cc(O)cc2O[C@@H]1c1cc(O)c(O)c(O)c1)c1cc(O)c(O)c(O)c1 [EGCG, (−)-epigallocatechin gallate]
effect on raloxifene solubility (concentration) in FeSSIF (in words) [3]: neither green tea extract nor EGCG significantly affected; also recorded: did not change; also recorded: Neither green tea extract nor EGCG had a significant effect
intestinal absorption of cholesterol from a test meal [4]: 63%
reduction of sunitinib AUC0-∞ [7]: 52%
reduction of sunitinib Cmax [7]: 48%

Cmax ([5]; mice, plasma, raloxifene 20 mg/kg oral with EGCG 12.96 mg/kg (0, 4, 8 h)): 820 nM
AUC0-4h [5, 9]: 1200 (53) nM•h
AUC0-24h [5, 9]: 2150 (52) nM•h
Cmax ([5]; mice, plasma, raloxifene 20 mg/kg oral with green tea extract 200 mg/kg (0, 4, 8 h)): 288 nM
AUC0-4h [5, 10]: 624 (31) nM•h
AUC0-24h [5, 10]: 1560 (32) nM•h
Metabolite-to-parent AUC0-4h ratio [5, 11]: 2.74 (30)
Metabolite-to-parent AUC0-24h ratio [5, 11]: 2.23 (36)
tmax [5, 11]: 0.25 (0.25 - 0.5) h
Metabolite-to-parent AUC0-4h ratio [5, 12]: 3.74 (25)
Metabolite-to-parent AUC0-24h ratio [5, 12]: 2.48 (38)
tmax [5, 12]: 0.5 (0.25 - 4) h
Metabolite-to-parent AUC0-4h ratio [5, 13]: 3.12 (34)
Metabolite-to-parent AUC0-24h ratio [5, 13]: 2.33 (24)
tmax [5, 13]: 0.25 (0.25 - 0.5) h
Structure (SMILES): O=C(c1ccc(OCCN2CCCCC2)cc1)c1c(-c2ccc(O)cc2)sc2cc(O[C@@H]3O[C@H](C(=O)O)[C@@H](O)[C@H](O)[C@H]3O)ccc12 [Raloxifene-6-glucuronide, raloxifene-6-glucuronide]

overt effects in the mice after administration ([5]; during the study): No overt effects
AUC(0-t) ([5]; male, C57BL/6, mouse, plasma, po, 20 mg/kg, AUC0-4h, mice, raloxifene 20 mg/kg oral with EGCG 12.96 mg/kg): 0.322 µM·h
AUC(0-t) ([5]; male, C57BL/6, mouse, plasma, po, 20 mg/kg, AUC0-4h, mice, raloxifene 20 mg/kg oral with green tea extract 200 mg/kg): 0.2 µM·h
AUC(0-t) ([5]; male, C57BL/6, mouse, plasma, po, 20 mg/kg, AUC0-24h, mice, raloxifene 20 mg/kg oral with EGCG 12.96 mg/kg): 0.867 µM·h
AUC(0-t) ([5]; male, C57BL/6, mouse, plasma, po, 20 mg/kg, AUC0-24h, mice, raloxifene 20 mg/kg oral with green tea extract 200 mg/kg): 0.669 µM·h
Cmax ([5]; male, C57BL/6, mouse, plasma, po, 20 mg/kg, Cmax, mice, raloxifene 20 mg/kg oral with EGCG 12.96 mg/kg (0, 4, 8 h)): 168 nM
Cmax ([5]; male, C57BL/6, mouse, plasma, po, 20 mg/kg, Cmax, mice, raloxifene 20 mg/kg oral with green tea extract 200 mg/kg (0, 4, 8 h)): 79 nM
tmax ([5]; male, C57BL/6, mouse, plasma, po, 20 mg/kg, tmax, mice, raloxifene 20 mg/kg oral with EGCG 12.96 mg/kg): 0.5 h
tmax ([5]; male, C57BL/6, mouse, plasma, po, 20 mg/kg, tmax, mice, raloxifene 20 mg/kg oral with green tea extract 200 mg/kg): 4 h
raloxifene solubility in FeSSIF compared to FaSSIF ([2]; FeSSIF pH 5.0 vs FaSSIF pH 6.5): 3.4 fold
Structure (SMILES): O=C(c1ccc(OCCN2CCCCC2)cc1)c1c(-c2ccc(O)cc2)sc2cc(O)ccc12 [Raloxifene, Raloxifene hydrochloride]
logP [1]: 5.78
oral bioavailability [8]: ~ 2%
